Experimental data: patent US20100280004A1, “SMALL MOLECULE CORRECTORS OF DELTAF508 CFTR TRAFFICKING” (The University of British Columbia and The Royal …, priority 2007, published 2010)

Experiments:
ΔF508 CFTR [1] = molecular target: T1, ΔF508 CFTR (Homo sapiens, UniProt P13569, DEL508-508); assay: Screening protocol: surface expression of 3HA-tagged ΔF508 CFTR in BHK cells (anti-HA immunofluorescence plate assay); format: cell-based; set-up: expressed in transfected cells; host or cells: BHK cells; conditions: for EC50: concentrations between 100 μM and 1 pM, FIG. 2
Experimental: BHK cells expressing 3HA-tagged ΔF508 CFTR between passages 5-8 were seeded in 96-well plates (Corning half area, black-sided, clear bottom) at 15,000 cells per well and incubated with culture medium for 24 h at 37° C. […] The remaining 16 wells on each plate were used for control conditions. Cells were fixed in a 2% Para-formaldehyde solution, washed with PBS, and blocked with PBS containing 5% fetal bovine serum (FBS) for 1 h at 4° C.
Blocking solution was replaced with 15 μl of primary antibody solution containing 1% FBS and mouse monoclonal anti-HA antibody (1:150 dilution, Sigma) in PBS. The plates were sealed and left at 4° C. overnight. After three washes with 100 μl PBS, cells were incubated for 1 h with 15 μl of secondary antibody solution containing 1% FBS and anti-mouse IgG conjugated with FITC (1:100 dilution, Sigma) in PBS. Cells were again washed three times with 100 μl of PBS and analyzed in a plate reader (Analyst™ HT96.384, Biosystems) (488 nm excitation, 510 nm emission). Hits were defined as those compounds giving fluorescence at least three standard deviations higher than untreated controls. The mean fluorescence of four untreated wells was used as the background signal when calculating deviations of the 80 compound-treated wells. Hits were then cherry-picked into reservoir plates and re-tested in duplicate using the same assay. Compounds that consistently give signals that were three standard deviations above untreated controls and were not intrinsically fluorescent were considered validated and studied further.

F508del-CFTR = molecular target: T2, F508del-CFTR (Homo sapiens, UniProt P13569, DEL508-508); assay: Immunofluorescence/confocal microscopy: cell surface CFTR (overlap with wheat germ agglutinin) in BHK cells expressing F508del-CFTR; format: cell-based; conditions: 10 μM, 24 hours, FIG. 3
T2 construct: expressed in transfected cells; host or cells: BHK cells
Experimental: BHK cells expressing F508del-CFTR were treated with 10 μM of the latonduines for 24 hours and then immunostained for CFTR and imaged by confocal microscopy (photomicrograph data not shown).
Cells were seeded onto 1 cm diameter glass coverslips (5000 per coverslip) and incubated overnight, then treated with compound and fixed in 2% Para formaldehyde. After fixation, cells were blocked using (5% FBS in PBS) for 1 hour at 4° C. The coverslips were then washed in PBS and incubated with primary antibody solution (1% FBS in PBS with 1:200 dilution mouse anti-CFTR antibody (Chemicon) for 2 hours at room temperature (0.05% Tween-20 was added to the blocking solution when staining of intracellular CFTR was required). Coverslips were washed four times in PBS and probed with secondary antibody solution (1% FBS in PBS plus goat anti-mouse Alexa 568 conjugated antibody at 1:1000 dilution) for 1 h at room temperature in the dark. The cells were then washed three times with PBS. The coverslips were then mounted on slides using an antifade mounting solution (Permamount) for confocal microscopy.
Analysis was done using the ImageJ system using 120-150 cells per sample in six fields. […]
The cell surface was identified using wheat germ agglutinin and the amount of cell surface CFTR measured (FIG. 3). […]

ΔF508 CFTR [2] = molecular target: T1, ΔF508 CFTR; assay: Iodide efflux assay in CFBE cells expressing ΔF508-CFTR; format: cell-based; set-up: endogenous in cells; host or cells: CFBE cells (human lung epithelial cells from a CF patient); conditions: CFBE cells (human lung epithelia of a cystic fibrosis patient); FIG. 5B
Experimental: Experiments were performed by hand or with a robotic liquid handling system (BioRobot 8000, Qiagen, USA) using Qiagen 4.1 software. Cells were cultured in 24-well plates until they reached confluence in order to perform parallel experiments and comparison analysis. After treatment or not with a test compound, the medium of each well was replaced with 1 ml of iodide loading buffer (in mM: 136 NaI, 3 KNO3, 2 Ca(NO3)2, 11 glucose and 20 Hepes pH 7.4) for 1 hour at 37° C. to permit the I− to reach equilibrium. At the beginning of each experiment, the loading buffer was removed by aspiration and cells were washed eight times with efflux buffer (same as loading buffer except that NaI was replaced with 136 mM NaNO3) to remove extracellular I^− in each well. The loss of intracellular I^− was determined by removing the medium with efflux buffer every 1 min for up to 11 min. The first four aliquots were recovered at 1-minute intervals in an empty 24-well plate and used to establish a stable baseline in efflux buffer alone. […] The iodide concentration of each aliquot was determined using an iodide-sensitive electrode (Orion Research Inc., Boston, Mass., USA or Ecomet) and converted to iodide content (i.e. the amount of iodide released during the 1 min interval). […]

panel of protein kinases = assay: Enzyme inhibition against a panel of protein kinases; format: biochemical
[3] = system: panel of human cancer lines; assay: Cytotoxicity assays against a panel of human cancer lines; format: cell-based
ΔF508 CFTR [4] = molecular target: T1, ΔF508 CFTR; assay: Immunoblotting analysis of biosynthetic processing of ΔF508-CFTR in BHK cells; format: cell-based; set-up: expressed in transfected cells; host or cells: BHK cells
Experimental: The effects of the latonduines on the biosynthetic processing of ΔF508-CFTR, latonduine treatment was assayed by immunoblotting analysis (FIGS. 4A and B).
Cell lysates were quantitated by Bradford assay (BioRad) and separated by SDS-PAGE (6% polyacrylamide gels) and analyzed by Western blotting. Western blots were blocked using 5% skimmed milk in PBS, then were probed overnight at 4° C. with a primary anti-CFTR antibody at a dilution of 1:1000 monoclonal mouse antibody (Chemicon). The blots were washed four times in PBS before the addition of the secondary HRP-conjugated anti-mouse antibody, at a dilution of 1:5000 (Amersham) for one hour at room temperature. The blots were washed five times in PBS and probed for chemiluminescence (Pierce). All samples were run with equal protein loading as determined using the Bradford assay (Biorad). Densitometry of the immunoblots were performed using the ImageJ program.

T1 sequence (P13569 with tags, fused parts or gaps DEL508-508): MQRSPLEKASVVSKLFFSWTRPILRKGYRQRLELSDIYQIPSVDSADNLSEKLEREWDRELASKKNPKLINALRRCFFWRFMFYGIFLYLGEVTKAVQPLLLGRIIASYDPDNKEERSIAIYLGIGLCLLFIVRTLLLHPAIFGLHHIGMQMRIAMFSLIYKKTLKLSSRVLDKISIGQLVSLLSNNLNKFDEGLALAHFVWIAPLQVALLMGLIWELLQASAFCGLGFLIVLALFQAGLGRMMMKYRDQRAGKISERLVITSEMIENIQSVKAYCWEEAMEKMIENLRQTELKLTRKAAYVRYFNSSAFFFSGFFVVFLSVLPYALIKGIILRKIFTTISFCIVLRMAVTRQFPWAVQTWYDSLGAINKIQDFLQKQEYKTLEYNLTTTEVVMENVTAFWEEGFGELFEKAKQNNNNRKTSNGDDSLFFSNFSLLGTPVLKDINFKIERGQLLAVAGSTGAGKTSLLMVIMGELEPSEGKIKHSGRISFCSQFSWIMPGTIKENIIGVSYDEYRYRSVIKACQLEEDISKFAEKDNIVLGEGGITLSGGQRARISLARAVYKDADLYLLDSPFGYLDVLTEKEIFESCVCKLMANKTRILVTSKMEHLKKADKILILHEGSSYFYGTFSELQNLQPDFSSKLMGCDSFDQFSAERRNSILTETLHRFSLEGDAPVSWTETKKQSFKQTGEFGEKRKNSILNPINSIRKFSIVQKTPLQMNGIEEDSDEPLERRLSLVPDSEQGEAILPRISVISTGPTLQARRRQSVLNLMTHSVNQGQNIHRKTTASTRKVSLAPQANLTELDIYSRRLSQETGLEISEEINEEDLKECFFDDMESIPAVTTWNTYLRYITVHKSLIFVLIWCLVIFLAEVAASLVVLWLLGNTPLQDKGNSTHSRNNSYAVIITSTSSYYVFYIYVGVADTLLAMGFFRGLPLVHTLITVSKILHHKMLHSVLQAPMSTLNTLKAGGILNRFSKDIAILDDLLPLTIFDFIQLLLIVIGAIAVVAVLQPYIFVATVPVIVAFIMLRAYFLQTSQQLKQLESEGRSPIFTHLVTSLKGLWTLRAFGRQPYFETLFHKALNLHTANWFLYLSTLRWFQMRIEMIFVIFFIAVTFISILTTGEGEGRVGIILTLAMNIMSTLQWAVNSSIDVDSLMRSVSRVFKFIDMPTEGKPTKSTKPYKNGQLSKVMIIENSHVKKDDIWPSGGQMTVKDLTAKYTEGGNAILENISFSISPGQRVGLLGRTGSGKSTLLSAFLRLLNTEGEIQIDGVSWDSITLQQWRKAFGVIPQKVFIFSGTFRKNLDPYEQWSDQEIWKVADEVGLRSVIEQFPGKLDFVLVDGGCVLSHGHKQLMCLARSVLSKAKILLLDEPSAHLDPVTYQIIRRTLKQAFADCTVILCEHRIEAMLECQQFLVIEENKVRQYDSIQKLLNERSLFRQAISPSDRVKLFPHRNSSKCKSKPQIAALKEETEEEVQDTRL
T2 sequence (P13569 with tags, fused parts or gaps DEL508-508): as above

Row | response in the screening protocol (surface expression of ΔF508 CFTR) (ΔF508 CFTR [1]; 24-hour treatment, 10 μM, FIGS. 1 and 6) | cell surface CFTR, % of the amount of wild-type CFTR plasma membrane signal (F508del-CFTR) | EC50 (ΔF508 CFTR [1]) | enzyme inhibition (panel of protein kinases) | surface expression, % of that observed in cells expressing wild-type CFTR (ΔF508 CFTR [4]; F508del-CFTR, stated in Example III) | share of F508del-CFTR that was complex-glycosylated (ΔF508 CFTR [4]; cells treated with the compound, densitometry of immunoblot) | Compound | functional ΔF508-CFTR ion channels, iodide efflux (ΔF508 CFTR [2]) | cytotoxicity [3]
1 | positive response | – | – | – | – | – | Nc1ncc2c(n1)-c1c([nH]c(Br)c1Br)C(=O)NC2 [isolatonduine] | – | –
2 | – | 51% | 0.5 nM | inactive | – | – | CCOC(=O)c1nc(N)nc2c1-c1c([nH]c(Br)c1Br)C(=O)NC2 [latonduine B ethyl ester] | can act as correctors of ΔF508-CFTR giving functional ion channels on the cell surface | inactive
3 | – | – | – | inactive | – | – | Nc1nc2c(c(C(=O)O)n1)-c1c([nH]c(Br)c1Br)C(=O)NC2 [latonduine B] | – | inactive
4 | – | – | 25 nM | inactive | – | – | COC(=O)c1nc(N)nc2c1-c1c([nH]c(Br)c1Br)C(=O)NC2 [latonduine B methyl ester] | – | inactive
5 | – | 29% | 0.4 nM | inactive | about 25% | Up to 30% | Nc1ncc2c(n1)CNC(=O)c1[nH]c(Br)c(Br)c1-2 [latonduine A] | – | inactive
